Measurements from article PMC3409642 (Pharmaceutical research, 2012).
Read-outs that look alike come from different tables or passages of the source.

What was measured:
UGT1A9 [1] = target: T1, UGT1A9 (Homo sapiens, UniProt O60656); test: Kinetic profiling of glucuronidation by expressed human UGT1A9; settings: for Log (CLint) (Actual): log of experimental CLint (μl/mg/min); for Vmax: pH 7.4
T1 sequence (O60656 26-530): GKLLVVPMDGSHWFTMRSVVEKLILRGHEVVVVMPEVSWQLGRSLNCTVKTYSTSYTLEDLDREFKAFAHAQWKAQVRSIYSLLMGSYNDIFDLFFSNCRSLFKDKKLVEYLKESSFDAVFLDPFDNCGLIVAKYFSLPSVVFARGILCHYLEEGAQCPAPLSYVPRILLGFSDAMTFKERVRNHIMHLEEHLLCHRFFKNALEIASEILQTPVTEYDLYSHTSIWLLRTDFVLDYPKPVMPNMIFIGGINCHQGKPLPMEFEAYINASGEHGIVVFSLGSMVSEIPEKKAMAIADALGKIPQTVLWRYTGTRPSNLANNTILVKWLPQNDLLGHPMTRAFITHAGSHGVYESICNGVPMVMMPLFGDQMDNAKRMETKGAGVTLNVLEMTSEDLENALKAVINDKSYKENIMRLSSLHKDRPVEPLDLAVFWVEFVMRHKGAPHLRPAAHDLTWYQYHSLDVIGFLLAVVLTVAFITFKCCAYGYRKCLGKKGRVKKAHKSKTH

UGT1A9 [2] = target: T1, UGT1A9; test: in vitro
UGT1A9 [3] = target: T1, UGT1A9; settings: for Log (CLint) (Actual): recombinant enzyme
not read [4] = substrate: Oc1ccc(-c2ccccc2)cc1; test: not read; settings: pH 7.4; 37.0 °C
not read [5] = substrate: C=CCc1ccc(O)c(OC)c1; test: not read; settings: pH 7.4; 37.0 °C
not read [6] = substrate: CN(C)CCc1c[nH]c2cccc(O)c12; test: not read; settings: pH 7.4; 37.0 °C
not read [7] = substrate: Cc1ccc2oc(=O)cc(O)c2c1; test: not read; settings: pH 7.4; 37.0 °C
not read [8] = substrate: COC(=O)c1ccc(O)cc1; test: not read; settings: pH 7.4; 37.0 °C

O=c1c(O)c(-c2ccccc2)oc2cc(O)cc(O)c12 [85.a, Galangin]
Log (CLint) (Actual) (UGT1A9 [1]): 4.04 | Log (CLint) (Actual) (UGT1A9 [1]; listed as 85.b): 3.68 | Km (UGT1A9 [2]; pH 7.4, Km): 0.68 µM

Cc1cc(O)c2c(c1)C(=O)c1cc(O)cc(O)c1C2=O [compound 18, Emodin]
CLint (Vmax/Km) (UGT1A9 [3]; human, pH 7.4): 1020 µL/min/mg | Log (CLint) (Actual) (UGT1A9 [3]; human, pH 7.4): 3.01 | Km (UGT1A9 [2]; pH 7.4, Km): 2.87 µM

Oc1cccc2ccccc12 [compound 21, Naphthol]
Vmax (UGT1A9 [1]): 72.1 pmol/mg/min | CLint (Vmax/Km) (UGT1A9 [3]; human, pH 7.4): 288 µL/min/mg | Log (CLint) (Actual) (UGT1A9 [3]; human, pH 7.4): 2.46

Cc1cc(O)cc2oc(-c3ccccc3)cc(=O)c12 [compound 48, 7-Hydoxy-5-methylflavone]
CLint (Vmax/Km) (UGT1A9 [3]): 5712 µL/min/mg | Log (CLint) (Actual) (UGT1A9 [3]; human): 3.76 | Km (UGT1A9 [3]; pH 7.4): 0.94 µM

O=c1cc(-c2ccc(O)cc2)oc2cc(O)cc(O)c12 [compound 50, Apigenin]
Log (CLint) (Actual) (UGT1A9 [3]; human, pH 7.4): 3.23

O=c1cc(-c2ccccc2)oc2cc(O)c(O)c(O)c12 [compound 51, Baicalein]
Log (CLint) (Actual) (UGT1A9 [3]; human, pH 7.4): 3.88 | Km (UGT1A9 [2]; pH 7.4, Km): 0.7 µM

O=c1cc(-c2ccccc2)oc2cc(O)cc(O)c12 [compound 52, Chrysin]
Log (CLint) (Actual) (UGT1A9 [3]; human, pH 7.4): 3.96

COc1c(O)cc2oc(-c3ccccc3)cc(=O)c2c1O [compound 57, OroxylinA]
Log (CLint) (Actual) (UGT1A9 [3]; human, pH 7.4): 2.94

O=c1c(O)c(-c2ccc(O)cc2)oc2ccccc12 [compound 64, 3,4′-Dihydroxyfavone]
CLint (Vmax/Km) (UGT1A9 [3]): 14000 µL/min/mg | Log (CLint) (Actual) (UGT1A9 [3]; human): 4.14 | Km (UGT1A9 [3]; pH 7.4): 0.13 µM

O=c1c(O)c(-c2ccccc2)oc2ccc(O)cc12 [compound 65, 3,6-Dihydroxyfavone]
CLint (Vmax/Km) (UGT1A9 [3]): 21000 µL/min/mg | Log (CLint) (Actual) (UGT1A9 [3]; human): 4.32 | Km (UGT1A9 [3]; pH 7.4): 0.62 µM

COc1cc(-c2oc3cc(O)cc(O)c3c(=O)c2O)ccc1O [compound 87, Isorhamnetin]
Log (CLint) (Actual) (UGT1A9 [3]; human, pH 7.4): 4.59

COc1cc(/C=C/C(=O)O)ccc1O [compound 95, Ferulic Acid]
Vmax (UGT1A9 [1]): 372 pmol/mg/min | CLint (Vmax/Km) (UGT1A9 [3]): 0.4 µL/min/mg | Log (CLint) (Actual) (UGT1A9 [3]; human): 0.30 | Km (UGT1A9 [3]; pH 7.4): 884 µM

COc1ccc(-c2coc3cc(O)cc(O)c3c2=O)cc1 [compound 100, Biochanin A]
CLint (Vmax/Km) (UGT1A9 [3]): 335 µL/min/mg | Log (CLint) (Actual) (UGT1A9 [3]; human): 2.53 | Km (UGT1A9 [3]; pH 7.4): 1.13 µM

O=c1c(-c2ccc(O)cc2)coc2cc(O)ccc12 [compound 101, Daidzein]
CLint (Vmax/Km) (UGT1A9 [3]; human, pH 7.4): 77 µL/min/mg | Log (CLint) (Actual) (UGT1A9 [3]; human, pH 7.4): 1.89

O=C1c2ccc(O)cc2OCC1c1ccc(O)cc1 (stereo not drawn) [compound 102, Dihydrodaidzein]
CLint (Vmax/Km) (UGT1A9 [3]): 8.1 µL/min/mg | Log (CLint) (Actual) (UGT1A9 [3]; human): 0.91 | Km (UGT1A9 [3]; pH 7.4): 77.7 µM

O=c1c(-c2ccc(O)cc2)coc2cc(O)cc(O)c12 [compound 105, Genistein]
Log (CLint) (Actual) (UGT1A9 [1]): 2.79 | CLint (Vmax/Km) (UGT1A9 [3]; human, pH 7.4): 617 µL/min/mg | Km (UGT1A9 [2]; pH 7.4): 2.09 µM

CCCCc1ccc(O)cc1 [compound 110, 4-n-Butylphenol]
Log (CLint) (Actual) (UGT1A9 [3]; human, pH 7.4): 1.18 | Km (UGT1A9 [2]; pH 7.4, Km): 43.1 µM

CC(C)c1ccc(O)cc1 [compound 117, 4-Isopropylphenol]
Log (CLint) (Actual) (UGT1A9 [1]): 1.78 | Km (UGT1A9 [2]; pH 7.4): 36.4 µM

Cc1ccc(O)cc1 [compound 119, 4-Methylphenol]
Log (CLint) (Actual) (UGT1A9 [3]; human, pH 7.4): 1.39

Oc1ccc(N=Nc2ccccc2)cc1 [compound 124, 4-Phenylazophenol]
CLint (Vmax/Km) (UGT1A9 [3]): 14 µL/min/mg | Log (CLint) (Actual) (UGT1A9 [3]; human): 1.15 | Km (UGT1A9 [3]; pH 7.4): 82.5 µM

CCC(C)c1ccc(O)cc1 (stereo not drawn) [compound 127, 4-sec-Butylphenol]
Log (CLint) (Actual) (UGT1A9 [1]): 1.57 | CLint (Vmax/Km) (UGT1A9 [3]; human, pH 7.4): 37 µL/min/mg | Km (UGT1A9 [2]; pH 7.4, Km): 87.5 µM

CCOC(=O)c1ccc(O)cc1 [compound 130, Ethyl-4-hydroxybenzoate]
Log (CLint) (Actual) (UGT1A9 [3]; human, pH 7.4): 1.61

C=CCc1ccc(O)c(OC)c1 [compound 131, Eugenol]
Log (CLint) (Actual) (UGT1A9 [3]; human, pH 7.4): 1.60

COC(=O)c1ccc(O)cc1 [compound 132, Methyl-4-hydroxybenzoate]
Log (CLint) (Actual) (UGT1A9 [3]; human, pH 7.4): 1.73

CCCOC(=O)c1ccc(O)cc1 [compound 134, Propyl-4-hydroxybenzoate]
Log (CLint) (Actual) (UGT1A9 [3]; human, pH 7.4): 1.48

CC(C)(c1ccc(O)cc1)c1ccc(O)cc1 [compound 135, Bisphenol A]
Log (CLint) (Actual) (UGT1A9 [3]; human, pH 7.4): 1.68

CN(C)CCc1c[nH]c2cccc(O)c12 [compound 143, Psilocin]
Log (CLint) (Actual) (UGT1A9 [3]; human, pH 7.4): 0.90

CCc1c2c(nc3ccc(O)cc13)-c1cc3c(c(=O)n1C2)COC(=O)[C@]3(O)CC [compound 144, SN-38]
CLint (Vmax/Km) (UGT1A9 [3]): 3 µL/min/mg | Log (CLint) (Actual) (UGT1A9 [3]; human): 0.44

C[C@]12CC[C@@H]3c4ccc(O)cc4CC[C@H]3[C@@H]1CC[C@@H]2O [estradiol, reference compound]
glucuronide metabolite formation on incubation with UGT1A9 (non-substrate) (UGT1A9 [3]): no metabolite can be detected

B1: human UGT1A9 (Homo sapiens) (protein)
chain: GKLLVVPMDGSHWFTMRSVVEKLILRGHEVVVVMPEVSWQLGRSLNCTVKTYSTSYTLEDLDREFKAFAHAQWKAQVRSIYSLLMGSYNDIFDLFFSNCRSLFKDKKLVEYLKESSFDAVFLDPFDNCGLIVAKYFSLPSVVFARGILCHYLEEGAQCPAPLSYVPRILLGFSDAMTFKERVRNHIMHLEEHLLCHRFFKNALEIASEILQTPVTEYDLYSHTSIWLLRTDFVLDYPKPVMPNMIFIGGINCHQGKPLPMEFEAYINASGEHGIVVFSLGSMVSEIPEKKAMAIADALGKIPQTVLWRYTGTRPSNLANNTILVKWLPQNDLLGHPMTRAFITHAGSHGVYESICNGVPMVMMPLFGDQMDNAKRMETKGAGVTLNVLEMTSEDLENALKAVINDKSYKENIMRLSSLHKDRPVEPLDLAVFWVEFVMRHKGAPHLRPAAHDLTWYQYHSLDVIGFLLAVVLTVAFITFKCCAYGYRKCLGKKGRVKKAHKSKTH
Km (not read [4]): 56.2 µM | Vmax (not read [4]): 0.00124 µmol/min/mg | Vmax/Km (not read [4]): 22 µL/min/mg | Km (not read [5]): 25 µM | Vmax (not read [5]): 0.001 µmol/min/mg | Vmax/Km (not read [5]): 40 µL/min/mg | Km (not read [6]): 748 µM | Vmax (not read [6]): 0.00598 µmol/min/mg | Vmax/Km (not read [6]): 8 µL/min/mg | Km (not read [7]): 57.8 µM | Vmax (not read [7]): 0.000225 µmol/min/mg | Vmax/Km (not read [7]): 4 µL/min/mg | Km (not read [8]): 101 µM
